Reference: PubChem BioAssay (NCI)
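Growth conditions: 96-well plates. Treatment: test compound, 48 hours, 5 concentrations. Analysis: linear interpolation between bracketing concentrations; unreached endpoints set to highest concentration. TGI denotes the concentration required for complete inhibition of growth.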

Tests used:
Test in all cases: NCI-60 cell line screen, 48 h
[1] = tested on: 786-0 renal
[2] = tested on: A498 renal
[3] = tested on: A549 NSCLC
[4] = tested on: ACHN renal
[5] = tested on: BT-549 breast
[6] = tested on: CAKI-1 renal
[7] = tested on: CCRF-CEM leukemia
[8] = tested on: COLO 205 colon
[9] = tested on: DU-145 prostate
[10] = tested on: EKVX NSCLC
[11] = tested on: HCC-2998 colon
[12] = tested on: HCT-116 colon
[13] = tested on: HCT-15 colon
[14] = tested on: HL-60(TB) leukemia
[15] = tested on: HOP-62 NSCLC
[16] = tested on: HOP-92 NSCLC
[17] = tested on: HS 578T breast
[18] = tested on: HT29 colon
[19] = tested on: IGROV1 ovarian
[20] = tested on: K-562 leukemia
[21] = tested on: KM12 colon
[22] = tested on: LOX IMVI melanoma
[23] = tested on: M14 melanoma
[24] = tested on: MALME-3M melanoma
[25] = tested on: MCF7 breast
[26] = tested on: MDA-MB-231 breast
[27] = tested on: MDA-MB-435
[28] = tested on: MDA-N
[29] = tested on: MOLT-4 leukemia
[30] = tested on: NCI-H226 lung
[31] = tested on: NCI-H23 lung
[32] = tested on: NCI-H460 lung
[33] = tested on: NCI-H522 lung
[34] = tested on: NCI/ADR-RES ovarian
[35] = tested on: OVCAR-3 ovarian
[36] = tested on: OVCAR-4 ovarian
[37] = tested on: OVCAR-5 ovarian
[38] = tested on: OVCAR-8 ovarian
[39] = tested on: PC-3 prostate
[40] = tested on: RPMI-8226 leukemia
[41] = tested on: RXF 393 renal
[42] = tested on: SF-268 CNS
[43] = tested on: SF-295 CNS
[44] = tested on: SF-539 CNS
[45] = tested on: SK-MEL-2 melanoma
[46] = tested on: SK-MEL-28 melanoma
[47] = tested on: SK-MEL-5 melanoma
[48] = tested on: SK-OV-3 ovarian
[49] = tested on: SN12C renal
[50] = tested on: SNB-19 CNS
[51] = tested on: SNB-75 CNS
[52] = tested on: SR leukemia
[53] = tested on: SW-620 colon
[54] = tested on: T-47D breast
[55] = tested on: TK-10 renal
[56] = tested on: U251 CNS
[57] = tested on: UACC-257 melanoma
[58] = tested on: UACC-62 melanoma
[59] = tested on: UO-31 renal

## COC(=O)c1ccccc1CC1Cc2cc3c(cc2C1=O)CCC3 (stereo unspecified)
[1]
  TGI: 89.3 µM
[2]
  TGI: > 61.1 µM
[3]
  TGI: 72.8 µM
[4]
  TGI: > 100 µM
[5]
  TGI: 31.8 µM
[6]
  TGI: > 100 µM
[7]
  TGI: 62.7 µM
[8]
  TGI: 28.4 µM
[9]
  TGI: > 100 µM
[10]
  TGI: > 100 µM
[11]
  TGI: > 100 µM
[12]
  TGI: 29.9 µM
[13]
  TGI: > 67.3 µM
[14]
  TGI: 27.6 µM
[15]
  TGI: > 94.4 µM
[16]
  TGI: 42.4 µM
[17]
  TGI: 86.6 µM
[18]
  TGI: 41.4 µM
[19]
  TGI: > 100 µM
[20]
  TGI: 44.5 µM
[21]
  TGI: > 100 µM
[22]
  TGI: 31.1 µM
[23]
  TGI: 44.5 µM
[24]
  TGI: 69.2 µM
[25]
  TGI: 65.3 µM
[26]
  TGI: 80.2 µM
[27]
  TGI: 10.7 µM
[28]
  TGI: 10.7 µM
[29]
  TGI: 33.9 µM
[30]
  TGI: 63.7 µM
[31]
  TGI: 75.1 µM
[32]
  TGI: > 71.4 µM
[33]
  TGI: 27.1 µM
[34]
  TGI: 21.8 µM
[35]
  TGI: > 76.5 µM
[36]
  TGI: > 93.3 µM
[37]
  TGI: > 90.8 µM
[38]
  TGI: > 80.8 µM
[39]
  TGI: > 100 µM
[40]
  TGI: 54.5 µM
[41]
  TGI: 17.1 µM
[42]
  TGI: > 100 µM
[43]
  TGI: 77.4 µM
[44]
  TGI: 43.1 µM
[45]
  TGI: 19.7 µM
[46]
  TGI: > 100 µM
[47]
  TGI: 20.9 µM
[48]
  TGI: > 71.8 µM
[49]
  TGI: > 67.2 µM
[50]
  TGI: > 100 µM
[51]
  TGI: 55.7 µM
[52]
  TGI: > 69 µM
[53]
  TGI: > 100 µM
[54]
  TGI: 69.9 µM
[55]
  TGI: 79.7 µM
[56]
  TGI: 42.3 µM
[57]
  TGI: 71.5 µM
[58]
  TGI: 69.6 µM
[59]
  TGI: 86.3 µM

## COc1c(/C=C/C=O)cc2c(c1OC)OCO2
[1]
  TGI: > 100 µM
[2]
  TGI: 3.15 µM
[3]
  TGI: > 100 µM
[4]
  TGI: > 100 µM
[5]
  TGI: > 100 µM
[6]
  TGI: 29.1 µM
[7]
  TGI: > 100 µM
[8]
  TGI: > 100 µM
[9]
  TGI: > 100 µM
[10]
  TGI: > 100 µM
[11]
  TGI: 78.5 µM
[12]
  TGI: > 100 µM
[13]
  TGI: 40.2 µM
[14]
  TGI: 53.1 µM
[15]
  TGI: 73.7 µM
[16]
  TGI: > 100 µM
[17]
  TGI: > 100 µM
[18]
  TGI: 69.5 µM
[19]
  TGI: 82.4 µM
[21]
  TGI: 29.4 µM
[22]
  TGI: 76 µM
[23]
  TGI: 56.2 µM
[24]
  TGI: 64 µM
[25]
  TGI: > 100 µM
[26]
  TGI: 80 µM
[27]
  TGI: > 100 µM
[28]
  TGI: 94 µM
[29]
  TGI: 49.6 µM
[30]
  TGI: 70 µM
[31]
  TGI: > 100 µM
[32]
  TGI: > 100 µM
[33]
  TGI: > 100 µM
[34]
  TGI: > 100 µM
[35]
  TGI: > 100 µM
[36]
  TGI: 85.6 µM
[37]
  TGI: > 100 µM
[38]
  TGI: > 100 µM
[39]
  TGI: > 100 µM
[40]
  TGI: 43.4 µM
[41]
  TGI: > 100 µM
[42]
  TGI: > 100 µM
[43]
  TGI: 52.1 µM
[44]
  TGI: > 100 µM
[45]
  TGI: 57.4 µM
[46]
  TGI: > 100 µM
[47]
  TGI: 50.3 µM
[48]
  TGI: > 100 µM
[49]
  TGI: 59.3 µM
[50]
  TGI: 44.8 µM
[51]
  TGI: > 100 µM
[52]
  TGI: 64.8 µM
[53]
  TGI: > 100 µM
[54]
  TGI: > 100 µM
[55]
  TGI: > 100 µM
[56]
  TGI: 84.1 µM
[57]
  TGI: > 100 µM
[58]
  TGI: 57 µM
[59]
  TGI: > 100 µM

## C=C1[C@H](OCC(C)C)[C@@H](O)[C@@H](OC(=O)c2cccnc2)C(C)(C)/C=C/[C@H](C)[C@H](OC(C)=O)[C@@]2(O)C[C@@](C)(OC(C)=O)[C@H](OC(=O)c3ccccc3)[C@@H]2[C@H]1OC(C)=O
[1]
  TGI: > 5 µM
[2]
  TGI: 2.79 µM
[3]
  TGI: > 5 µM
[4]
  TGI: 2.87 µM
[5]
  TGI: > 4.23 µM
[6]
  TGI: > 5 µM
[7]
  TGI: > 2.82 µM
[8]
  TGI: > 5 µM
[9]
  TGI: > 5 µM
[10]
  TGI: > 5 µM
[11]
  TGI: 1.59 µM
[12]
  TGI: > 5 µM
[13]
  TGI: 4.97 µM
[14]
  TGI: > 2.09 µM
[15]
  TGI: 2.26 µM
[16]
  TGI: > 5 µM
[17]
  TGI: > 2.39 µM
[18]
  TGI: 1.17 µM
[19]
  TGI: > 5 µM
[20]
  TGI: > 3.36 µM
[21]
  TGI: > 2.97 µM
[22]
  TGI: > 5 µM
[23]
  TGI: > 4.49 µM
[24]
  TGI: 1.46 µM
[25]
  TGI: > 5 µM
[26]
  TGI: > 5 µM
[27]
  TGI: > 3.97 µM
[28]
  TGI: > 5 µM
[29]
  TGI: > 2.79 µM
[30]
  TGI: 4.57 µM
[31]
  TGI: > 3.13 µM
[32]
  TGI: 1.52 µM
[33]
  TGI: 2.54 µM
[34]
  TGI: > 3.25 µM
[35]
  TGI: > 3.67 µM
[36]
  TGI: > 5 µM
[37]
  TGI: > 5 µM
[38]
  TGI: > 3.28 µM
[39]
  TGI: > 5 µM
[40]
  TGI: 3.35 µM
[41]
  TGI: > 5 µM
[42]
  TGI: > 3.24 µM
[43]
  TGI: > 4.14 µM
[44]
  TGI: 1.58 µM
[45]
  TGI: > 3.78 µM
[46]
  TGI: > 5 µM
[47]
  TGI: > 5 µM
[48]
  TGI: > 5 µM
[49]
  TGI: > 5 µM
[50]
  TGI: > 5 µM
[51]
  TGI: > 2.87 µM
[52]
  TGI: > 3.35 µM
[53]
  TGI: > 5 µM
[54]
  TGI: > 5 µM
[55]
  TGI: > 5 µM
[56]
  TGI: > 5 µM
[57]
  TGI: > 5 µM
[58]
  TGI: > 5 µM
[59]
  TGI: > 1.24 µM
